Test results from article PMC10064984, “Anti-cyclooxygenase, anti-glycation, and anti-skin aging effect of Dendrobium officinale flowers’ aqueous extract and its phytochemical validation in aging” (Frontiers in Immunology, 2023).
Values joined by “and” are separate entries in the source; they are usually repeats but may differ in a detail not shown here. Equal entries are not always repeated. Where two headings read alike, the source gives them in different places.

Assays:
COX-2 = biological target: T1, COX-2 (Homo sapiens, UniProt P35354); assay: Anti-COX-2 assay (COX-2 Inhibitor Screening Kit); type: biochemical
T1 construct: purchased Beyotime S0168
T1 sequence (P35354 18-604): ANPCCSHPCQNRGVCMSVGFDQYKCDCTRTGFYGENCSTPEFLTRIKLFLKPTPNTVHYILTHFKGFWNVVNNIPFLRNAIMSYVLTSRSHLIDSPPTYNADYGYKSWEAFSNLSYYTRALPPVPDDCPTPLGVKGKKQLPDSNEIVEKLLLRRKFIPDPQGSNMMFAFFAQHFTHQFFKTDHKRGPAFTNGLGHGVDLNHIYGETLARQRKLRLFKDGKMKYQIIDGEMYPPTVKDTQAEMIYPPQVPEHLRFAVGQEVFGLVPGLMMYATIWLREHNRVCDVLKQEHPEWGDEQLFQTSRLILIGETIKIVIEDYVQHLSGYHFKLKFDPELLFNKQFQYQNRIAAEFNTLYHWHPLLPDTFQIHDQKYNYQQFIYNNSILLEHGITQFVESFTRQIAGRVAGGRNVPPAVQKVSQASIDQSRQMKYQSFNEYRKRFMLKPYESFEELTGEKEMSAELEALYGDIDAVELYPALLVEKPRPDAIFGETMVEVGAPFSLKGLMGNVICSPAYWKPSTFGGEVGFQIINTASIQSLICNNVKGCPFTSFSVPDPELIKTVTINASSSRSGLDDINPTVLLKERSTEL

[1] = Fluorescent AGEs formation in a BSA-fructose/glucose system; type: biochemical; settings: for inhibition of fluorescent AGEs formation (BSA-抗糖化), single replicate: individual replicate; for inhibition of fluorescent AGEs formation (BSA-抗糖化), 平均 (mean): mean of 3 replicates
Summary of the method: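 BSA glycated in vitro with D-glucose and D-fructose while test samples, dissolved in DMSO:water (1:4), were present. Percent inhibition of fluorescent AGE formation calculated from fluorescence corrected for sample-only and BSA-free blanks; triplicate.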

[2] = Online UPLC-PDA-MS-ABTS·+ scavenging (postcolumn derivatisation); settings: within DOF extract
Method: Online identification of antioxidant components of DOF extract was performed using a UPLC system (Milford, MA, USA) consisting of a Waters photodiode array detector and a Waters postcolumn derivatisation system supplying fresh ABTS solution (UPLC-PDA-QDa-ABTS). […] The detection wavelengths were set at 280 and 734 nm, and the injection volume of the sample was 10 μl.
To detect radical scavengers, the UPLC system was coupled with a Waters pump, which supplied freshly prepared ABTS·+ solution into a reaction coil (15 m, 0.25 mm ID) with a flow rate of 0.2 ml/min at 37°C. Negative peaks were recorded based on a decrease of absorbance at 729 nm after the reaction of individual compounds with the ABTS·+ radical. For preliminary identification of compounds, a Waters Acquity QDa mass detector in negative ionisation mode was connected in series to PDA with the following parameters: electrospray ion source; cone voltage, 15 V; atomiser, N2; and scanning range, 100–800 m/z.

[3] = ABTS·+ decolourisation capacity; type: biochemical; settings: for ABTS scavenging rate: replicate wells, listed as T9
Summary of the method: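 ABTS·+ working solution in 0.2 M phosphate buffer, pH 7.4, was adjusted to A729 0.8 ± 0.05, and 100 μl was mixed with 200 μl sample; absorbance was read at 729 nm after 10 min, in triplicate. Inhibition was taken relative to a phosphate-buffer control, and IC50 was obtained graphically from dose-inhibition curves.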

DPPH· scavenging = type: biochemical; settings: mean ± SD, n = 3
[4] = FRAP total antioxidant capacity; type: biochemical; settings: lower part of sheet (compound series);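 note: colourimetric FRAP kit assay read as absorbance in 96-well plates, values as mM FeSO4 via standard curve, EC1 being sample concentration matching 1.0 mmol/L FeSO4, Trolox positive control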
[5] = 15.625 µM, listed as T9, 15.625 µM
[6] = 31.25 µM, listed as T9, 31.25 µM

COX-2 inhibition (in words) (COX-2): great COX-2 inhibition
inhibition at 3.125 µM (COX-2; 3.125 μM, single replicates): 18.7%
COX-2 inhibition (COX-2; 3.125 μM, single replicates, listed as T9, 3.125 µM): 24.64% and 15.29%
inhibition at 6.25 µM (COX-2; 6.25 μM, single replicates): 29.8%
COX-2 inhibition (COX-2; 6.25 μM, single replicates, listed as T9, 6.25 µM): 26.80% and 27.13%
inhibition at 12.5 µM (COX-2; 12.5 μM, single replicates): 61.6%
COX-2 inhibition (COX-2; 12.5 μM, single replicates, listed as T9, 12.5 µM): 66.25% and 69.30%
inhibition at 25 µM (COX-2; 25 μM, single replicates): 73.7%
COX-2 inhibition (COX-2; 25 μM, single replicates, listed as T9, 25 µM): 76.43% and 76.52%
inhibition at 50 µM (COX-2; 50 μM, single replicates): 77.8%
COX-2 inhibition (COX-2; 50 μM, single replicates, listed as T9, 50 µM): 79.58% and 76.60%
inhibition at 100 µM (COX-2; 100 μM, single replicates): 79.3%
COX-2 inhibition (COX-2; 100 μM, single replicates, listed as T9, 100 µM): 79.42% and 83.93%
inhibition at 200 µM (COX-2; 200 μM, single replicates): 80.9%
COX-2 inhibition (COX-2; 200 μM, single replicates, listed as T9, 200 µM): 81.85% and 81.79%
IC50 (COX-2; mean ± SD, n = 3, nd, not detected, read-out: COX-2 IC50): 11 ± 0.7 µM
IC50 (COX-2; supplement sheet COX, read-out: COX-2 IC50, single replicate): 11.7 µM and 10.4 µM and 10.9 µM
IC50 ([1]; mean ± SD, n = 3, read-out: BSA-glycation IC50): 296 ± 8.5 µM
IC50 ([3]; mean ± SD, n = 3): 6.63 ± 0.41 µM
IC50 (DPPH· scavenging): 172 ± 76 µM
Structure (SMILES): O=c1c(OC2OC(CO)C(O)C(O)C2OC2OC(CO)C(O)C(O)C2O)c(-c2ccc(O)c(O)c2)oc2cc(O)cc(O)c12 (centres unmarked) [compound 16, Quercetin-3-O-sophoroside]
inhibition of fluorescent AGEs formation (BSA-抗糖化), single replicate [1, 5]: -5.89% and 1.09% and -2.67%
inhibition of fluorescent AGEs formation (BSA-抗糖化), 平均 (mean) [1, 5]: -2.49%
inhibition of fluorescent AGEs formation (BSA-抗糖化), single replicate [1, 6]: 4.38% and 4.16% and -1.45%
inhibition of fluorescent AGEs formation (BSA-抗糖化), 平均 (mean) [1, 6]: 2.37%
inhibition of fluorescent AGEs formation (BSA-抗糖化), single replicate ([1]; 62.5 µM, listed as T9, 62.5 µM): 13.91% and 12.77% and 15.77%
inhibition of fluorescent AGEs formation (BSA-抗糖化), 平均 (mean) ([1]; 62.5 µM, listed as T9, 62.5 µM): 14.15%
inhibition of fluorescent AGEs formation (BSA-抗糖化), single replicate ([1]; 125 µM, listed as T9, 125 µM): 29.89% and 32.42% and 28.07%
inhibition of fluorescent AGEs formation (BSA-抗糖化), 平均 (mean) ([1]; 125 µM, listed as T9, 125 µM): 30.13%
inhibition of fluorescent AGEs formation (BSA-抗糖化), single replicate ([1]; 250 µM, listed as T9, 250 µM): 44.67% and 46.80% and 48.36%
inhibition of fluorescent AGEs formation (BSA-抗糖化), 平均 (mean) ([1]; 250 µM, listed as T9, 250 µM): 46.61%
inhibition of fluorescent AGEs formation (BSA-抗糖化), single replicate ([1]; 500 µM, listed as T9, 500 µM): 63.53% and 64.37% and 63.12%
inhibition of fluorescent AGEs formation (BSA-抗糖化), 平均 (mean) ([1]; 500 µM, listed as T9, 500 µM): 63.67%
inhibition of fluorescent AGEs formation (BSA-抗糖化), single replicate ([1]; 1000 µM, listed as T9, 1000 µM): 79.44% and 79.91% and 79.18%
inhibition of fluorescent AGEs formation (BSA-抗糖化), 平均 (mean) ([1]; 1000 µM, listed as T9, 1000 µM): 79.51%
inhibition of fluorescent AGEs formation (BSA-抗糖化), single replicate ([1]; 2000 µM, listed as T9, 2000 µM): 88.85% and 89.28% and 89.06%
inhibition of fluorescent AGEs formation (BSA-抗糖化), 平均 (mean) ([1]; 2000 µM, listed as T9, 2000 µM): 89.06%
inhibition of fluorescent AGEs formation (BSA-抗糖化), single replicate ([1]; 4000 µM (series head 'T9 4000µM', 2-fold dilutions), listed as T9): 94.75% and 94.42% and 94.91%
inhibition of fluorescent AGEs formation (BSA-抗糖化), 平均 (mean) ([1]; 4000 µM, listed as T9, 4000 µM): 94.69%
online ABTS radical scavenging (size of negative peaks at 734 nm) [2]: strongest ABTS radical scavengers
ABTS scavenging rate ([3]; 0.1mM (second) series, concentration 1.5625 (unit not given)): 15.90% and 14.14% and 8.19%
ABTS scavenging rate ([3]; 0.1mM (second) series, concentration 3.125 (unit not given)): 24.15% and 23.67% and 20.29%
ABTS scavenging rate ([3]; 0.1mM (second) series, concentration 6.25 (unit not given)): 44.10% and 44.05% and 40.43%
ABTS scavenging rate ([3]; 0.1mM (second) series, concentration 12.5 (unit not given)): 74.66% and 75.28% and 72.52%
ABTS scavenging rate ([3]; 0.1mM (second) series, concentration 25 (unit not given)): 99.29% and 99.51% and 99.54%
ABTS scavenging rate ([3]; 0.1mM (second) series, concentration 50 (unit not given)): 99.16% and 99.11% and 99.25%
ABTS scavenging rate ([3]; 0.1mM (second) series, concentration 100 (unit not given)): 98.65% and 98.51% (2×)
ABTS scavenging rate ([3]; 0.5mM series, concentration 7.8125 (unit not given)): 63.17% and 62.77% and 62.93%
ABTS scavenging rate ([3]; 0.5mM series, concentration 15.625 (unit not given)): 91.66% and 90.68% and 90.61%
ABTS scavenging rate ([3]; 0.5mM series, concentration 31.25 (unit not given)): 99.28% and 99.41% and 99.37%
ABTS scavenging rate ([3]; 0.5mM series, concentration 62.5 (unit not given)): 98.95% and 98.76% and 98.72%
ABTS scavenging rate ([3]; 0.5mM series, concentration 125 (unit not given)): 98.61% and 98.31% and 98.43%
ABTS scavenging rate ([3]; 0.5mM series, concentration 500 (unit not given)): 98.97% and 98.88% and 98.79%
FRAP EC1 [4]: 949.6 ± 41.9 µM
